Values quoted from earlier work in patent US8877792B2, “Compositions for increasing solubility of azole drug compounds that are poorly soluble in water” (Dow Pharmaceutical Sciences, Inc., priority 2008, dated 2014).

Details: background statement, cited from earlier work

## Cc1ncc([N+](=O)[O-])n1CCO [Metronidazole, metronidazole]
Room temperature
  aqueous solubility of metronidazole in water: about 0.87 % w/w
Solutions that can withstand cold temperatures encountered during shipping
  limit of metronidazole concentration for physically stable solutions in water: about 0.7 % w/w
